Data as given in patent US7915299B2, “2-(2-hydroxyphenyl)benzimidazoles useful for treating obesity and diabetes” (High Point Pharmaceuticals, LLC, priority 2006, dated 2011).

Row | SMILES | melting point [°C]
1 | Cc1c(Cl)cc(C(C)(C)C)c(O)c1-c1nc2cc(S(=O)(=O)C(F)(F)F)ccc2[nH]1 [Example 1, 6-tert-Butyl-4-chloro-3-methyl-2-(5-trifluoromethanesulfonyl-1H-benzimidazol-2-yl)-phenol] | 253 to 254
2 | Cc1ccc(C(C)(C)C)c(O)c1-c1nc2cc(C#N)ccc2[nH]1 [Example 4, 2-(3-tert-Butyl-2-hydroxy-6-methyl-phenyl)-1H-benzimidazole-5-carbonitrile] | 212 to 215
3 | CCN(CC)S(=O)(=O)c1ccc2[nH]c(-c3c(C)c(Cl)cc(C(C)(C)C)c3O)nc2c1 [Example 6, 2-(3-tert-Butyl-5-chloro-2-hydroxy-6-methyl-phenyl)-1H-benzimidazole-5-sulfonic acid diethylamide] | 277 to 278
4 | Cc1c(Cl)cc(C(C)(C)C)c(O)c1-c1nc2cc(OC(F)(F)F)ccc2[nH]1 [Example 7, 6-tert-Butyl-4-chloro-3-methyl-2-(5-trifluoromethoxy-1H-benzimidazol-2-yl)-phenol] | 243 to 244
5 | COc1ccc(C(C)(C)C)c(O)c1-c1nc2cc(S(=O)(=O)C(F)(F)F)ccc2[nH]1 [Example 8, 6-tert-Butyl-3-methoxy-2-(5-trifluoromethanesulfonyl-1H-benzimidazol-2-yl)-phenol] | 55 to 56
6 | CSc1cc(C(C)(C)C)c(O)c(-c2nc3cc(S(=O)(=O)C(F)(F)F)ccc3[nH]2)c1C [Example 9, 6-tert-Butyl-3-methyl-4-methylsulfanyl-2-(5-trifluoromethanesulfonyl-1H-benzimidazol-2-yl)-phenol] | 210 to 211
7 | Cc1c(F)cc(C(C)(C)C)c(O)c1-c1nc2ccc(S(=O)(=O)C(F)(F)F)cc2[nH]1 [Example 11, 6-tert-Butyl-4-fluoro-3-methyl-2-(5-trifluoromethanesulfonyl-1H-benzimidazol-2-yl)-phenol] | 245 to 247
8 | Cc1ccc(C(C)(C)C)c(O)c1-c1nc2ccc(S(=O)(=O)C(F)(F)F)cc2[nH]1 [Example 12, 6-tert-Butyl-3-methyl-2-(5-trifluoromethanesulfonyl-1H-benzimidazol-2-yl)-phenol] | 218 to 220
9 | Cc1c(Br)cc(C(C)(C)C)c(O)c1-c1nc2cc(OC(F)(F)F)ccc2[nH]1 [Example 13, 6-tert-Butyl-4-bromo-3-methyl-2-(5-trifluoromethoxy-1H-benzimidazol-2-yl)-phenol] | 235 to 236
